The values that follow come from PubChem BioAssay AID202 (DTP/NCI, 2004).

This test concerns HT29 xenograft, nude mice, s.c., tumor weight T/C%. Description: NCI In Vivo Anticancer Drug Screen. Data for tumor model HT29;CX-1 Human Adenocarcinoma (MER+) (subcutaneous) in NU/NU Swiss (nude) mice. The note with it: endpoint: optimum tumor weight change, higher = larger tumour. As for the experimental part:
The antitumor activity of compounds was measured in mice bearing transplantable tumors. Survival or tumor size were measured and the results are expressed as the measurement made in the treated group (T) divided by the measurement made in the vehicle treated control group (C). The tumor model used in this assay is HT29;CX-1 Human Adenocarcinoma (MER+) (subcutaneous) in NU/NU Swiss (nude) mice

Where [1] appears, read: dose: 50.0 mg/kg/injection, schedule: Q04DX003 (ip), vehicle: Klucel (hydroxypropylcellulose) (HPC).
Setting [2] is: dose: 25.0 mg/kg/injection, schedule: Q04DX003 (ip), vehicle: Klucel (hydroxypropylcellulose) (HPC).
Where [3] appears, read: dose: 100.0 mg/kg/injection, schedule: Q04DX003 (ip), vehicle: Klucel (hydroxypropylcellulose) (HPC).
Setting [4] is: dose: 200.0 mg/kg/injection, schedule: Q04DX003 (ip), vehicle: Klucel (hydroxypropylcellulose) (HPC).
[5] abbreviates: dose: 50.0 mg/kg/injection, schedule: Q04DX003 (ip), vehicle: saline.
Setting [6] is: dose: 100.0 mg/kg/injection, schedule: Q04DX003 (ip), vehicle: saline.
Setting [7] is: dose: 200.0 mg/kg/injection, schedule: Q04DX003 (ip), vehicle: saline.
[8] abbreviates: dose: 100.0 mg/kg/injection, schedule: Q04DX003 (ip), vehicle: suspension in saline.
[9] abbreviates: dose: 200.0 mg/kg/injection, schedule: Q04DX003 (ip), vehicle: suspension in saline.
Setting [10] is: dose: 400.0 mg/kg/injection, schedule: Q04DX003 (ip), vehicle: suspension in saline.

Where “and” joins values, the source holds several entries; their conditions need not be identical. Identical values can stand only once.

In general, T/C refers to the result in the treated group divided by that in the control group, in per cent. Regarding `Cc1c(N)nc([C@H](CC(N)=O)NC[C@H](N)C(N)=O)nc1C(=O)N[C@H](C(=O)N[C@H](C)[C@@H](O)CC(=O)N[C@H](C(=O)NC(O[C@@H]1O[C@@H](C)[C@@H](N)[C@@H](O)[C@H]1O)C(O)c1nc(-c2nc(C(=O)NCCCCN)cs2)cs1)[C@@H](C)O)[C@@H](O[C@@H]1O[C@@H](CO)[C@@H](O)[C@H](O)[C@@H]1O[C@H]1O[C@H](CO)[C@@H](O)[C@H](OC(N)=O)[C@@H]1O)c1c[nH]cn1` (stereo partly drawn), the T/C runs as follows: (dose: 4.0 mg/kg/injection, schedule: Q04DX003 (ip), vehicle: saline) 47 % of control; (dose: 8.0 mg/kg/injection, schedule: Q04DX003 (ip), vehicle: saline) 27 % of control; (dose: 16.0 mg/kg/injection, schedule: Q04DX003 (ip), vehicle: saline) 7 % of control.

On to `OCC1OC(n2cnc3cncnc32)C(O)C1O` (stereo not drawn), for which the T/C was 49 % of control (dose: 12.5 mg/kg/injection, schedule: Q04DX003 (ip), vehicle: saline) and 48 % of control (dose: 25.0 mg/kg/injection, schedule: Q04DX003 (ip), vehicle: saline).

As to `O=C1N[C@@H]([C@H]2CC[C@H](Cl)CN2)C(=O)N[C@H]1[C@H]1CC[C@H](Cl)CN1`, the T/C reads like this: (dose: 0.31 mg/kg/injection, schedule: Q01DX001 (ip), vehicle: water) 53 % of control; (dose: 0.63 mg/kg/injection, schedule: Q01DX001 (ip), vehicle: water) 64 % of control; (dose: 1.25 mg/kg/injection, schedule: Q01DX001 (ip), vehicle: water) 79 % of control.

`O=[N+]([O-])/C=C\c1ccc2c(c1)OCO2`: the T/C under setting [1] was 116 % of control.

On to `CN(C)N=Nc1cn[nH]c1C(N)=O`, for which the T/C runs as follows: under setting [2], 69 % of control; under setting [1], 123 % of control; under setting [3], 79 % of control; under setting [4], 88 % of control.

As for `C[n+]1c(-c2cccc3ccccc23)c2cc(N)ccc2c2ccccc21`, the T/C (dose: 1.5 mg/kg/injection, schedule: Q04DX003 (ip), vehicle: saline) was 86 % of control.

For `Nc1ccc(Cl)cc1N`, the T/C reads like this: (dose: 400.0 mg/kg/injection, schedule: Q04DX003 (ip), vehicle: saline with Tween-80) 87 % of control; (dose: 800.0 mg/kg/injection, schedule: Q04DX003 (ip), vehicle: saline with Tween-80) 98 % of control.

`CC(C)CCCCCCCCCCCCC(=O)NCC(=O)NC1C(O)C(O)C(Nc2ncnc3nc[nH]c23)OC1C(O)CO` (stereo not drawn): the T/C (dose: 3.0 mg/kg/injection, schedule: Q04DX003 (ip), vehicle: suspension in saline) is 108 % of control and 110 % of control; the T/C (dose: 6.0 mg/kg/injection, schedule: Q04DX003 (ip), vehicle: suspension in saline) is 67 % of control and 79 % of control; the T/C (dose: 12.0 mg/kg/injection, schedule: Q04DX003 (ip), vehicle: suspension in saline) was 16 % of control and 40 % of control.

Regarding `c1cc2n(n1)CCN2`, the T/C under setting [5] is 42 % of control; the T/C under setting [6] was 50 % of control; the T/C under setting [7] is 63 % of control; the T/C (dose: 400.0 mg/kg/injection, schedule: Q04DX003 (ip), vehicle: saline) is 41 % of control.

Consider `CN1CCN(CCCN2c3ccccc3Sc3ccc(C(F)(F)F)cc32)CC1`, for which the T/C under setting [5] is 79 % of control.

Take `O=S(CCCl)CCCl`: the T/C reads like this: under setting [2], 72 % of control; under setting [1], 51 % of control; under setting [3], 65 % of control.

Turning to `CCOC(=O)C1C2OC(=O)C(C(=O)C2CN(CCCl)CCCl)C1C1CC=C(CC2=CCC(C3C4C(=O)OC(C(CN(CCCl)CCCl)C4=O)C3C(=O)OCC)CC2)CC1` (stereo not drawn), the T/C under setting [2] is 91 % of control, the T/C under setting [1] is 66 % of control and the T/C under setting [3] is 69 % of control.

Take `CC(=O)c1c(O)c(C)c(O)c2c1OC1=CC(=O)C(C(C)=O)C(=O)C12C` (stereo not drawn): the T/C (dose: 50.0 mg/kg/injection, schedule: Q01DX003 (ip), vehicle: sodium bicarbonate) is 88 % of control; the T/C (dose: 100.0 mg/kg/injection, schedule: Q01DX003 (ip), vehicle: sodium bicarbonate) is 97 % of control; the T/C (dose: 200.0 mg/kg/injection, schedule: Q01DX003 (ip), vehicle: sodium bicarbonate) was 82 % of control.

Consider `NC(=S)N/N=C/c1ccc(O)cn1`, for which the T/C is 63 % of control (dose: 150.0 mg/kg/injection, schedule: Q04DX003 (ip), vehicle: saline with Tween-80); 70 % of control (dose: 300.0 mg/kg/injection, schedule: Q04DX003 (ip), vehicle: saline with Tween-80); 87 % of control (dose: 600.0 mg/kg/injection, schedule: Q04DX003 (ip), vehicle: saline with Tween-80).

Turning to `O=C/C(Cl)=C(/Cl)C(=O)O`, the T/C (dose: 12.5 mg/kg/injection, schedule: Q04DX003 (ip), vehicle: saline with Tween-80) is 86 % of control.

For `CC(=O)OCC1OC(n2ccc(N)nc2=O)C(OC(C)=O)C1OC(C)=O` (stereo not drawn), the T/C under setting [8] was 65 % of control and 89 % of control; the T/C under setting [9] was 56 % of control.

In the case of `CCc1ccccc1N1CCN(C(=O)c2cc(OC)c(OC)c(OC)c2)CC1`, the T/C is, setting by setting: under setting [2], 108 % of control; under setting [1], 63 % of control; under setting [3], 75 % of control; under setting [4], 82 % of control.

For `COC(OC(CO)C(O)S(=O)(=O)O)C(O)S(=O)(=O)O` (stereo not drawn), the T/C under setting [9] was 54 % of control and the T/C under setting [10] was 80 % of control.

For the compound `C=CC(=O)NCNC(=O)C=C`, the T/C under setting [5] is 78 % of control, the T/C under setting [6] is 65 % of control and the T/C under setting [7] was 60 % of control.

Turning to `COc1cccc2c1C(=O)c1c(O)c3c(c(O)c1C2=O)C[C@@](O)(C(=O)CO)C[C@@H]3OC1CC(N)CC(C)O1` (stereo partly drawn), the T/C runs as follows: (dose: 0.37 mg/kg/injection, schedule: Q04DX003 (ip), vehicle: water) 63 % of control; (dose: 0.75 mg/kg/injection, schedule: Q04DX003 (ip), vehicle: water) 54 % of control; (dose: 1.5 mg/kg/injection, schedule: Q04DX003 (ip), vehicle: water) 39 % of control.

Consider `CN(CO)c1nc(N(C)CO)nc(N(C)CO)n1`, for which the T/C (dose: 25.0 mg/kg/injection, schedule: Q01DX005 (ip), vehicle: Klucel (hydroxypropylcellulose) (HPC)) was 75 % of control; the T/C (dose: 25.0 mg/kg/injection, schedule: Q04DX005 (ip), vehicle: Klucel (hydroxypropylcellulose) (HPC)) was 62 % of control; the T/C (dose: 25.0 mg/kg/injection, schedule: Q07DX005 (ip), vehicle: Klucel (hydroxypropylcellulose) (HPC)) is 93 % of control; the T/C (dose: 50.0 mg/kg/injection, schedule: Q01DX005 (ip), vehicle: Klucel (hydroxypropylcellulose) (HPC)) was 102 % of control and 123 % of control; the T/C (dose: 50.0 mg/kg/injection, schedule: Q04DX005 (ip), vehicle: Klucel (hydroxypropylcellulose) (HPC)) was 119 % of control and 120 % of control; the T/C (dose: 50.0 mg/kg/injection, schedule: Q07DX005 (ip), vehicle: Klucel (hydroxypropylcellulose) (HPC)) is 99 % of control. For the same compound, the T/C runs as follows: under setting [8], 75 % of control; (dose: 100.0 mg/kg/injection, schedule: Q04DX005 (ip), vehicle: Klucel (hydroxypropylcellulose) (HPC)) 99 % of control and 116 % of control; (dose: 100.0 mg/kg/injection, schedule: Q07DX005 (ip), vehicle: Klucel (hydroxypropylcellulose) (HPC)) 48 % of control; (dose: 200.0 mg/kg/injection, schedule: Q07DX005 (ip), vehicle: Klucel (hydroxypropylcellulose) (HPC)) 47 % of control and 58 % of control.

Regarding `CCCC(=O)OCc1cc(=O)n(C)c2c3c4c(cc12)c(C)cc(=O)n4CO3`, under setting [1], the T/C was 53 % of control.

On to `COc1cccc2c1C(=O)c1c(O)c3c(c(O)c1C2=O)C[C@@](O)(C(=O)CO)C[C@@H]3OC1CC(N)C(O)C(C)O1` (stereo partly drawn), for which, where the note is “dose: 2.0 mg/kg/injection, schedule: Q04DX003 (ip), vehicle: water”, the T/C is 83 % of control.

Consider `O=c1n[n+]([O-])ccn1C1OC(CO)C(O)C1O` (stereo not drawn), for which the T/C was 75 % of control under setting [8]; 71 % of control under setting [9]; 68 % of control under setting [10]; 82 % of control (dose: 800.0 mg/kg/injection, schedule: Q04DX003 (ip), vehicle: suspension in saline).

On to `O=P1(NCCCl)OCCCN1CCCl` (stereo not drawn), for which the T/C is, setting by setting: (dose: 25.0 mg/kg/injection, schedule: Q04DX003 (ip), vehicle: suspension in saline) 78 % of control; (dose: 50.0 mg/kg/injection, schedule: Q04DX003 (ip), vehicle: suspension in saline) 108 % of control.

For `CC1OC(OC2CC(O)(C(=O)CO)Cc3c(O)c4c(c(O)c32)C(=O)c2ccccc2C4=O)CC(N)C1O` (stereo not drawn), the T/C (dose: 0.25 mg/kg/injection, schedule: Q04DX003 (ip), vehicle: water) was 89 % of control.

Turning to `N=C(N)Sc1ccccn1`, the T/C under setting [5] is 77 % of control, the T/C under setting [6] is 112 % of control and the T/C under setting [7] was 65 % of control.
